The results in this text go back to PubChem BioAssay (NCI).

“And” between values parts separate entries of the source, which are not always exact repeats. Identical values can stand only once.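 Assay format: 96-well plates, 48-hour exposure. GI50 = concentration required for 50% inhibition of growth. TGI marks complete inhibition of growth.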 A value given as a limit tells only on which side of the number the result lay.

Test systems include PC-3 prostate; LXFL 529 NSCLC; SN12C renal; HCT-15 colon; MDA-MB-435; HCT-116 colon; SNB-75 CNS; RPMI-8226 leukemia; M14 melanoma; XF 498 CNS.
What all share (assay): growth of human tumour cells (NCI), 48 h

As to `CC(C)=CCC1=C(O)c2ccccc2C(=O)C1=O`, the TGI with PC-3 prostate, in the assay with LXFL 529 NSCLC, with SN12C renal, in the assay with HCT-15 colon, in the assay on MDA-MB-435 and in the assay with HCT-116 colon was > 100 µM in each case. In addition, the TGI in the assay with SNB-75 CNS, in the assay with RPMI-8226 leukemia, in the assay on M14 melanoma and with XF 498 CNS was > 100 µM throughout. In addition, the GI50 with LXFL 529 NSCLC was > 100 µM and 16.2 µM; in the assay on SN12C renal, > 100 µM and 31.3 µM; in the assay with MDA-MB-435, 21.8 µM; in the assay with M14 melanoma, > 100 µM and 45.8 µM and 16.3 µM.

Regarding `CC(C)C1CN(C(=O)OCc2ccccc2)C2N1C(=O)C2(C)OCc1ccccc1` (stereo not given), the TGI in the assay on LXFL 529 NSCLC is > 100 µM; with SN12C renal, > 100 µM; in the assay on HCT-15 colon it was > 100 µM; in the assay on HCT-116 colon, > 100 µM; in the assay on SNB-75 CNS, 59.5 µM; in the assay with RPMI-8226 leukemia it was 66.6 µM. Further, the TGI was > 100 µM in the assay with M14 melanoma and 33.5 µM in the assay on XF 498 CNS.

As for `COCOCCC#CCO`, the TGI in the assay with LXFL 529 NSCLC, in the assay with SN12C renal, in the assay with HCT-15 colon, with HCT-116 colon, in the assay on SNB-75 CNS and in the assay on RPMI-8226 leukemia was > 100 µM in each case. For the same compound, the TGI in the assay on M14 melanoma and with XF 498 CNS was > 100 µM each time.
